Test results reported in patent US6630310B1, “Assay for binding between carbohydrate and glycolipid” (Biopolymer Engineering Pharmaceutical, Inc., priority 1996, dated 2003).

How the values were obtained:
[1] = Competition of ^3H-PGG-Glucan binding to lactosyl ceramide in reconstituted membranes (FIG. 14)
Source text: FIG. 14 is a graph of the comparison of underivatized, aqueous soluble β(1-3)-glucan and single helix competition of ^3H-underivatized, aqueous soluble β(1-3)-glucan binding in three assay formats. Underivatized, aqueous soluble β(1-3)-glucan or single helix glucan was used at designated concentrations to compete for ^3H-underivatized, aqueous soluble β(1-3)-glucan binding to lactosyl ceramide (LacCer) in a 96-well plate (triangles), or to lactosyl ceramide in reconstituted membranes (squares), or to human leukocyte membranes (circles). Open symbols represent underivatized, aqueous soluble β(1-3) glucan, and closed symbols represent single helix. Maximum competition was assigned at the highest concentration of underivatized, aqueous soluble β(1-3)-glucan used as competitor in each type of assay.
Membranes were prepared from the receptor-negative cell line, U937, and extracted with chloroform/methanol as described above. The upper and lower layers were combined after removal of the proteinaceous interphase and dried under a stream of argon with the sample to be assayed for binding (lactosyl ceramide or fractions from the purification). […]
The dried lipid/sample preparations were resuspended in HBSS (500 μL) by brief sonication, and centrifuged for 10 minutes at 12,000×g. […] Pellets were then dissolved in SOLVABLE™, scintillation fluid was added, and radioactivity was measured.

[2] = system: human leukocyte membranes; assay: Direct binding of radioactively labeled underivatized, aqueous soluble β(1-3)-glucan to human leukocyte membranes (time course, concentration-dependence, Scatchard)
Procedure: Bound radioactively labeled underivatized, aqueous soluble β(1-3)-glucan was separated from unbound ligand by centrifugation through a double layer density gradient, and the membrane pellet was solubilized and radioactivity determined. Equilibrium binding was achieved after 60 minutes at 37° C. at a concentration of 1 μg/ml radioactively labeled underivatized, aqueous soluble β(1-3)-glucan (FIG. 1).
Membrane-associated radioactivity was determined following centrifugation of the reaction mixture through a sucrose/oil density gradient as described in the Examples. Specific binding was calculated by subtracting non-specific binding from total binding. […]
Membranes were diluted to 2 to 5 mg/ml in HBSS with and without 1 mg/ml BSA. […] The tubes were spun at 15,000×g for 4-5 minutes and the tips containing the membrane pellets were removed, incubated in 300 μl SOLVABLE™ (New England Nuclear, Boston, Mass.) overnight at 50° C. to dissolve the pellet, and then radioactivity determined by liquid scintillation counting. No radioactivity was found in the oil layer in the absence of added membranes. […]

[3] = system: neutrophil (human blood leukocyte) membranes; assay: ^3H-PGG-Glucan binding to neutrophil membranes; details: PMN versus mononuclear cells
Procedure: The distribution of the receptor for underivatized, aqueous soluble β(1-3)-glucan across various cell lines and human tissues was determined by assessing the binding of radioactively labeled underivatized, aqueous soluble β(1-3)-glucan to membranes derived from a variety of cell types (see Table 2). The amount of radioactively labeled underivatized, aqueous soluble β(1-3)-glucan binding is expressed as mean±standard deviation in ng/mg membrane protein. The non-specific binding is defined as radioactively labeled underivatized, aqueous soluble β(1-3)-glucan bound in the presence of greater than 100-fold excess unlabeled underivatized, aqueous soluble β(1-3)-glucan. The specific binding is determined by (Total Binding)−(Non-Specific Binding), with the number in parenthesis in Table 2 representing the percent total binding. Quantitation of complement receptor 3 (CR3) was carried out by flow cytometry using fluorescently-labeled anti-CD11b, and data are expressed as mean channel fluorescence (MCF) in arbitrary fluorescence units; background fluorescence for isotype controls were subtracted. The neutrophil sample was greater than 95 percent neutrophils by histology. […]
Membranes were diluted to 2 to 5 mg/ml in HBSS with and without 1 mg/ml BSA. […] No radioactivity was found in the oil layer in the absence of added membranes. […]

With “underivatized, aqueous soluble β(1-3)-glucan [PGG-Glucan]” the “competition for ^3H-underivatized, aqueous soluble β(1-3)-glucan binding to LacCer in the reconstitution assay (in words)” value [1] was “competes”, the “binding to its receptor at room temperature or below (in words)” value [2] was “does not bind” and the “specific binding of human peripheral blood PMN relative to mononuclear cells” value [3] was “five to ten”.
